Each structure is given as a SMILES string.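 Cells were grown in 96-well plates and exposed to each compound for 48 hours at five concentrations; endpoints were interpolated linearly between bracketing concentrations, or set to the highest concentration if not reached. Abbreviation: GI50, concentration required for 50% inhibition of growth. The concentration for full growth arrest is given as TGI.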

TGI and GI50 data for 19 compounds are collected here from PubChem BioAssay (NCI).

Test systems include U251 CNS; OVCAR-8 ovarian; LOX IMVI melanoma; IGROV1 ovarian; SF-268 CNS; HT29 colon; SK-MEL-5 melanoma; NCI-H226 lung; ACHN renal.
Holding throughout (assay): growth of human tumour cells (NCI), 48 h

Consider `O=C(N/C(=C\c1ccc(F)cc1)c1nc2ccccc2[nH]1)c1ccccc1`, for which the TGI in the assay on U251 CNS, in the assay on OVCAR-8 ovarian, in the assay on LOX IMVI melanoma, in the assay with IGROV1 ovarian, with SF-268 CNS and in the assay on HT29 colon was over 100 µM each time. The TGI with SK-MEL-5 melanoma, in the assay on NCI-H226 lung and in the assay with ACHN renal was over 100 µM in each case.
For the compound `CC1=C(SCCC(=O)OC(C[Se]C2=C(C)C(=O)c3ccccc3C2=O)C(=O)NC(C)(C)C)C(=O)c2ccccc2C1=O` (centres undefined), the GI50 with U251 CNS was 0.45 µM; in the assay with OVCAR-8 ovarian, 1.28 µM; in the assay with LOX IMVI melanoma, 1.4 µM; in the assay on IGROV1 ovarian, 0.771 µM; with SF-268 CNS it was 1.55 µM; with HT29 colon, 1.78 µM. The figures for the GI50 in the assay on SK-MEL-5 melanoma, in the assay on NCI-H226 lung and in the assay on ACHN renal were 1.52 µM, 1.87 µM and 1.56 µM, respectively. Further, the TGI in the assay with U251 CNS came to 1.57 µM; with OVCAR-8 ovarian, 2.74 µM; in the assay with LOX IMVI melanoma, 2.9 µM; in the assay on IGROV1 ovarian, 2.1 µM; in the assay on SF-268 CNS it was 2.88 µM; with HT29 colon, 3.39 µM. Also, the TGI turned out to be 2.86 µM in the assay with SK-MEL-5 melanoma, 4.14 µM with NCI-H226 lung and 2.9 µM in the assay with ACHN renal.
Take `C=CCCC(=O)CC(=O)OCc1ccccc1`: the TGI in the assay with U251 CNS, in the assay on OVCAR-8 ovarian, in the assay with LOX IMVI melanoma, with IGROV1 ovarian, in the assay with SF-268 CNS and in the assay on HT29 colon was over 100 µM each time. The TGI in the assay with SK-MEL-5 melanoma and with ACHN renal was over 100 µM throughout.
Take `CC1(C2CCC3(C)C(C2)C3Sc2ccccc2)OCCO1` (centres undefined): the TGI in the assay on U251 CNS was 42.8 µM; with OVCAR-8 ovarian it was over 100 µM; in the assay on LOX IMVI melanoma, 49.6 µM; in the assay on IGROV1 ovarian, over 100 µM; in the assay on SF-268 CNS, over 100 µM; in the assay with HT29 colon, 41.4 µM. The TGI in the assay on SK-MEL-5 melanoma stood at 34 µM; in the assay with ACHN renal, 46.9 µM.
Take `O=C1C(OC(=O)c2ccccc2)=C(c2ccc(O)cc2)C(=O)C(OC(=O)c2ccccc2)=C1c1ccc(O)cc1`: the TGI in the assay with U251 CNS, in the assay on OVCAR-8 ovarian, in the assay on LOX IMVI melanoma, in the assay with IGROV1 ovarian, in the assay on SF-268 CNS and with HT29 colon was over 100 µM in each case. The TGI in the assay with SK-MEL-5 melanoma, with NCI-H226 lung and with ACHN renal was over 100 µM each time.
For `CCOc1ccccc1NC(=O)C1=C(C)NC(C)=C(C(=O)Nc2ccccc2OCC)C1c1cccc([N+](=O)[O-])c1`, the TGI with U251 CNS, in the assay on OVCAR-8 ovarian, in the assay with LOX IMVI melanoma, in the assay with IGROV1 ovarian, in the assay with SF-268 CNS and in the assay with HT29 colon was over 100 µM each time. Moreover, the TGI in the assay on SK-MEL-5 melanoma, with NCI-H226 lung and in the assay on ACHN renal was over 100 µM in each case.
Take `COC(=O)C(C)Oc1ccc(O)cc1` (centres undefined): the TGI in the assay with U251 CNS is over 100 µM; in the assay on OVCAR-8 ovarian it was over 100 µM; in the assay on IGROV1 ovarian it was over 100 µM; in the assay on SF-268 CNS it was 44.5 µM; in the assay on HT29 colon, over 100 µM; in the assay with SK-MEL-5 melanoma, over 100 µM. Moreover, the TGI in the assay with NCI-H226 lung and in the assay with ACHN renal was over 100 µM throughout.
As to `COc1cc(CCc2ccncc2)cc(OC)c1OC`, the TGI in the assay with U251 CNS, in the assay on OVCAR-8 ovarian, in the assay on LOX IMVI melanoma, in the assay with IGROV1 ovarian, in the assay on SF-268 CNS and in the assay with HT29 colon was over 100 µM throughout. For the same compound, the TGI with SK-MEL-5 melanoma, in the assay with NCI-H226 lung and with ACHN renal was over 100 µM in each case.
For the compound `C=C1C(=O)OC2(C)CCC1CC1OC1(C)CCC=C(C)CCC2O` (centres undefined), the TGI in the assay on U251 CNS, with OVCAR-8 ovarian, in the assay on LOX IMVI melanoma, with IGROV1 ovarian, in the assay with SF-268 CNS and with HT29 colon was over 100 µM each time. The TGI in the assay with SK-MEL-5 melanoma, in the assay on NCI-H226 lung and in the assay with ACHN renal was over 100 µM in each case.
With `N#Cc1cc2c(cc1Cl)SC(=Nc1ccccc1)N(S(=O)(=O)c1ccc(Br)s1)S2(=O)=O`, the GI50 in the assay with U251 CNS was 19.4 µM; in the assay with OVCAR-8 ovarian, 18.9 µM; with LOX IMVI melanoma, 18.8 µM; in the assay with IGROV1 ovarian, 12.8 µM; in the assay with SF-268 CNS it was 20.6 µM; in the assay with HT29 colon it was 32.3 µM. In addition, the GI50 in the assay on SK-MEL-5 melanoma is 16 µM; with NCI-H226 lung, 28.8 µM; with ACHN renal, 19.7 µM. The TGI was 42.5 µM in the assay on U251 CNS; 47.9 µM in the assay on OVCAR-8 ovarian; 43.6 µM in the assay on LOX IMVI melanoma; 31.1 µM in the assay on IGROV1 ovarian; 47.2 µM in the assay with SF-268 CNS; over 100 µM in the assay on HT29 colon. In addition, the TGI was 30.3 µM in the assay on SK-MEL-5 melanoma, 55.8 µM in the assay on NCI-H226 lung and 37.3 µM with ACHN renal.
With `COC1CC(n2cc(F)c(N)nc2=O)OC1CO` (centres undefined), the TGI in the assay with U251 CNS, in the assay on OVCAR-8 ovarian, in the assay with LOX IMVI melanoma, in the assay with SF-268 CNS, in the assay on HT29 colon and in the assay on SK-MEL-5 melanoma was over 100 µM in each case. Also, the TGI in the assay on NCI-H226 lung and in the assay with ACHN renal was over 100 µM throughout.
On to `COc1ccc2c(c1)[nH]c1c3ccc(OC)cc3oc(=O)c21`, for which the TGI in the assay with U251 CNS, in the assay with OVCAR-8 ovarian, in the assay on LOX IMVI melanoma, with IGROV1 ovarian, in the assay on SF-268 CNS and in the assay with HT29 colon was over 100 µM each time. Besides, the TGI in the assay with SK-MEL-5 melanoma, in the assay on NCI-H226 lung and with ACHN renal was over 100 µM each time.
As to `Cc1nc(-n2nc(-c3ccccc3)cc2-c2ccccc2)sc1C(=O)/C=C/c1cccc([N+](=O)[O-])c1`, the TGI was 32.5 µM with U251 CNS; over 100 µM in the assay with OVCAR-8 ovarian; 36.6 µM in the assay on LOX IMVI melanoma; 92.2 µM with IGROV1 ovarian; 31.2 µM in the assay on SF-268 CNS; 28.1 µM in the assay with HT29 colon. Besides, the TGI in the assay with SK-MEL-5 melanoma is 26.7 µM; in the assay with ACHN renal it was over 100 µM.
Turning to `O=C1C(=Cc2ccc(F)cc2)C(=O)c2ccccc21`, the TGI with U251 CNS, with OVCAR-8 ovarian, in the assay on IGROV1 ovarian, in the assay with SF-268 CNS, in the assay on HT29 colon and in the assay on SK-MEL-5 melanoma was over 100 µM in each case. Moreover, the TGI in the assay on NCI-H226 lung and in the assay on ACHN renal was over 100 µM each time.
Regarding `COC(=O)C(=O)C(C#N)c1c(Cl)cccc1Cl` (centres undefined), the TGI in the assay with OVCAR-8 ovarian, in the assay on LOX IMVI melanoma, in the assay on IGROV1 ovarian, in the assay with SF-268 CNS, in the assay with HT29 colon and in the assay with SK-MEL-5 melanoma was over 100 µM in each case. Also, the TGI in the assay with NCI-H226 lung and in the assay with ACHN renal was over 100 µM each time.
On to `C[C@@H](C[C@H](CCO)c1ccccc1)c1ccc2ccccc2c1`, for which the GI50 in the assay with U251 CNS was 1.57 µM; with OVCAR-8 ovarian, 1.85 µM; in the assay on LOX IMVI melanoma, 1.6 µM; with IGROV1 ovarian it was 1.57 µM; in the assay with SF-268 CNS, 1.48 µM; in the assay with HT29 colon it was 1.43 µM. Also, the GI50 in the assay on SK-MEL-5 melanoma is 1.57 µM; in the assay on ACHN renal, 1.65 µM. The TGI was found to be 2.94 µM in the assay on U251 CNS; 3.82 µM in the assay on OVCAR-8 ovarian; 2.96 µM in the assay on LOX IMVI melanoma; 3.01 µM with IGROV1 ovarian; 3.09 µM with SF-268 CNS; 2.8 µM in the assay on HT29 colon. Besides, the TGI in the assay with SK-MEL-5 melanoma was found to be 2.91 µM; with ACHN renal it was 3.01 µM.
For the compound `CCN1CCC(O)(/C=C/c2ccccc2)C(C(=O)/C=C/c2ccccc2)C1` (centres undefined), the TGI in the assay with U251 CNS turned out to be 6.67 µM; in the assay with OVCAR-8 ovarian, 4.55 µM; in the assay on IGROV1 ovarian, 3.78 µM; in the assay on SF-268 CNS it was 7.36 µM; with HT29 colon it was 3.73 µM; with SK-MEL-5 melanoma, 12.2 µM. The values for the TGI in the assay with NCI-H226 lung and in the assay with ACHN renal were 9.93 µM and 3.23 µM, respectively.
For the compound `Oc1ccc(O)c(-n2cccn2)c1-n1cccn1`, the TGI in the assay with U251 CNS, with OVCAR-8 ovarian, in the assay with LOX IMVI melanoma, with IGROV1 ovarian, with SF-268 CNS and in the assay on HT29 colon was over 100 µM throughout. Besides, the TGI in the assay on SK-MEL-5 melanoma and in the assay on ACHN renal was over 100 µM throughout.
Turning to `Cn1cc(-c2csc(-c3cn(C(=O)OC(C)(C)C)c4ccccc34)n2)c2cccnc21`, the GI50 with U251 CNS is 4.23 µM; in the assay on OVCAR-8 ovarian, 6.03 µM; in the assay on LOX IMVI melanoma, 3.53 µM; with IGROV1 ovarian, 6.5 µM; with SF-268 CNS it was 8.01 µM; in the assay with SK-MEL-5 melanoma it was 2.56 µM. The GI50 is 3.07 µM with NCI-H226 lung and 7.33 µM with ACHN renal. Also, the TGI in the assay on U251 CNS came out at 16.3 µM; with OVCAR-8 ovarian it was 33.9 µM; in the assay on LOX IMVI melanoma, 18.6 µM; with IGROV1 ovarian, 31 µM; in the assay on SF-268 CNS, 35.3 µM; in the assay on SK-MEL-5 melanoma it was 13.2 µM. In addition, the TGI in the assay with NCI-H226 lung was determined as 20.6 µM; in the assay on ACHN renal it was 20.4 µM.
